Results: article PMC8333425, “Discovery of a dual Ras and ARF6 inhibitor from a GPCR endocytosis screen” (Nature Communications, 2021)
Several values for one entry are separate records, joined by “and”; a condition that tells them apart may be missing. Equal values may be shown once.

Key:
Format in all cases: cell-based, human
[1] = tested on: B2R; assay: Endosomal BRET assay of agonist-mediated B2R internalization (B2R-RlucII / Endo-rGFP)
From the text: We performed a HT campaign in HEK293 cells using the bystander endosomal BRET sensor, which consists of a Renilla luciferase (RlucII)-tagged AT1R and an acceptor renilla GFP (rGFP) anchored to endosomes through an Endofin-FYVE (Endo-rGFP) domain[12]. AngII-mediated trafficking of AT1R to endosomes was screened against commercial libraries of ~115,000 small molecules (Fig. 1a and Supplementary Data 1). Because our assay is based on luminescence and fluorescence, we excluded 6610 compounds that quenched more than 50% of the luciferase or GFP signals. After excluding 5 AT1R antagonists, we conserved hit compounds blocking by more than 40%, as well as those potentiating by more than 100% receptor internalization. From this collection of 943 compounds, a second validation on AT1R internalization was performed using the same BRET assay, as well as on the agonist-mediated B2R internalization, this time using B2R-RlucII and Endo-rGFP. Only compounds that were revalidated on AT1R and affected B2R endocytosis were kept, which included forty hits (20 potentiators and 20 inhibitors) (Fig. 1b and Supplementary Data 2). We focused on inhibitors that were commercially available at the beginning of the project and tested their cell toxicity by microscopy, looking at cells expressing B2R tagged with YFP, which highlights cell contours and potential morphological changes, such as rounding up of cells following treatment with 50 μM of the compounds that may have indicated cell death. None of the inhibitors tested caused abnormal cell morphological changes when cells were treated with compounds as compared to DMSO-treated cells. Inhibitors were also assessed in terms of structure novelty, derivatization potential, and commercial availability of analogs (within 95–98% similarity from Tanimoto metric, Sci-Finder, https://scifinder-n.cas.org), for structure-activity relationship studies (SAR). They were scored 1–5, from best to worst. We excluded compounds with potential nucleophilic reactivity (e.g., Michael addition: compounds 7, 26, and 27), those reported to have biological activities (compounds 8, 20, 25, 30, and 35) and/or showing autofluorescence (compound 26). Compound 19 ranked high, but only had one other molecule with a similar structure available. Although other molecules could be interesting in their own rights as endocytosis inhibitors (e.g., compounds 1, 9, 11, 12, 13, 24, 31, and 37), we focused on compound 21 (Fig. 1c) because not only did it rank high in our analysis, but it was also the only compound with substantially more similar analogs commercially available at the time of these investigations. In the screen and the follow-up validation assay, 21 inhibited more than 50% AT1R internalization and more than 65% B2R internalization (Supplementary Data 2). […] Because β-arrestins are critically involved in GPCR endocytosis and trafficking in cells, we assessed 21’s effects on β-arrestins’ recruitment to AT1R and B2R at the PM using a BRET assay, as well as their trafficking into endosomes by microscopy.
HEK293SL cells were seeded at a density of 7.5 × 10^5 cells per 100-mm dish and 24 h later, transiently transfected as such. For receptor internalization experiments, cells were transfected with 0.12 μg AT1R-RlucII, B2R-RlucII, or β2AR-RlucII and 0.48 μg of either rGFP-CAAX (to assess removal from the PM) or rGFP-FYVE (to assess accumulation in the endosomes). For β-arrestin recruitment assays, cells were transfected with 0.48 μg of receptor-YFP along with 0.12 μg of β-arrestin-RlucII. For β-arrestin/AP-2 binding experiments, cells were transfected with 1 μg Flag-AT1R, 1 μg β2-Adaptin-YFP, and 0.12 μg β-arrestin2-RlucII. For G protein activation, cells were transfected with 3 μg of sp-Flag-AT1R along with either 4.5 μg of the Gαq-polycistronic BRET sensor or 0.24 μg of the Gαi3-RlucII and 0.6 μg of GFP10-Gγ2 and Gβ1 sensors or 0.12 μg PKN-RBD-RlucII and 0.48 μg of rGFP-CAAX. […]

[2] = tested on: EGFR; assay: BRET concentration-response, EGFR of Fig1d source data
[3] = tested on: ERK1/2 activation by AT1R; assay: Western blot of AT1R-mediated ERK1/2 activation in β-arrestin1/2 KO cells; details: for ERK1/2 activation by AT1R in β-arrestin1/2 KO cells: 50 μM
Method: (§1) HEK293SL cells (10^5 cells per well) were seeded in a poly-L-lysine-coated six-well plate and transiently transfected with 3 μg Flag-AT1R, HA-B2R or HA-β2AR and/or 500 ng Flag-MEK1-WT, Flag-MEK1-DD, Flag-BRAF-WT, Flag-BRAF-V600E, Flag-K-Ras-WT, Flag-K-Ras-G12V, HA-ARF6-WT, or HA-ARF6-T27N. Gαq/11 KO and βarr1/2 KO cells were seeded onto 100 mm dishes at a density of 10^6 cells per dish. Next day, cells were transfected with 3 μg AT1R alone or along with 500 ng of β-arrestin2 using PEI. After 18 h of transfection, cells were detached and re-seeded onto poly-L-lysine coated 12-well plates (~1.5–2 × 10^5cells/well) for subsequent experiments. Forty-eight hours post transfection, in a 37 °C water bath, cells were serum-starved for 30 min, pretreated with DMSO (0.1%) or compound 21/Rasarfin (50 µM or at indicated concentrations) for 30 min, then stimulated or not with the indicated ligand [AngII (1 µM), BK (1 µM), Iso (10 µM) or EGF (100 ng/ml)] at indicated times. Cells were put on ice, washed with PBS and solubilized in 2x laemmli buffer (250 mM Tris–HCl pH 6.8, 2% SDS (w/v), 10% glycerol (v/v), 0.01% bromophenol blue (w/v) and 5% β-mercaptoethanol (v/v)) by heating at 65 °C for 15 min. Lysates were resolved on 10 or 14% SDS-PAGE, transferred to nitrocellulose membranes and immunoblotted for p-ERK1/2, ERK1/2, p-Akt, Akt, HA, Myc, β-actin or FLAG. ImageLab 5.2 software was used to quantify the digital blots as fold of the phosphorylated protein over total protein, which were then normalized as indicated in the figure legends. Uncropped immunoblots are provided in the Source Data file.

[4] = tested on: BRAF; assay: Western blot of ERK1/2 phosphorylation induced by BRAF (BRAF-WT / BRAF-V600E)
Method: as §1

CC(C)C(=O)N1CCN(c2ccc(NC(=O)c3cc4ccccc4o3)cc2Cl)CC1 [Compound 21]
IC50 ([1]; Homo sapiens, BK, into endosomes, read-out: IC50 for inhibition of B2R internalization): 11 µM
B2R internalization into endosomes, ligand-promoted BRET (Mean) ([1]; Log [Comp21] (M) -4.3): 20.7288 percent compared to DMSO
B2R internalization into endosomes, ligand-promoted BRET (Mean) ([1]; Log [Comp21] (M) -4.6): 30.2526 percent compared to DMSO
B2R internalization into endosomes, ligand-promoted BRET (Mean) ([1]; Log [Comp21] (M) -5): 61.9767 percent compared to DMSO
B2R internalization into endosomes, ligand-promoted BRET (Mean) ([1]; Log [Comp21] (M) -5.3): 83.8073 percent compared to DMSO
B2R internalization into endosomes, ligand-promoted BRET (Mean) ([1]; Log [Comp 21] (M) -6): 104.977 percent compared to DMSO
B2R internalization into endosomes, ligand-promoted BRET (Mean) ([1]; Log [Comp21] (M) -6.3): 107.04 percent compared to DMSO
B2R internalization into endosomes, ligand-promoted BRET (Mean) ([1]; Log [Comp 21] (M) -7): 102.555 percent compared to DMSO
inhibition of B2R internalization ([1]; follow-up validation assay): more than 65%
B2R Inhibition (%DMSO) ([1]; one experiment, negative = potentiation): 66.5725 %DMSO
EGFR, ligand-promoted BRET (Mean) ([2]; Log [Comp21] (M) -4.3): 103.469 percent compared to DMSO
EGFR, ligand-promoted BRET (Mean) ([2]; Log [Comp21] (M) -4.6): 97.8054 percent compared to DMSO
EGFR, ligand-promoted BRET (Mean) ([2]; Log [Comp21] (M) -5): 87.6772 percent compared to DMSO
EGFR, ligand-promoted BRET (Mean) ([2]; Log [Comp21] (M) -5.3): 105.328 percent compared to DMSO
EGFR, ligand-promoted BRET (Mean) ([2]; Log [Comp 21] (M) -6): 96.2669 percent compared to DMSO
EGFR, ligand-promoted BRET (Mean) ([2]; Log [Comp21] (M) -6.3): 100.826 percent compared to DMSO
EGFR, ligand-promoted BRET (Mean) ([2]; Log [Comp 21] (M) -7): 105.279 percent compared to DMSO
ERK1/2 activation by AT1R in β-arrestin1/2 KO cells [3]: similarly inhibited ERK1/2 activation
ERK1/2 activation by AT1R in β-arrestin1/2 KO cells ([3]; listed as Rasarfin): totally blocked
ERK1/2 activation relative to time 0 (S_Fig.4a) ([3]; barr1/2 KO cells, Time 0 min): 1
Mean Diff. DMSO - Comp 21 (Bonferroni's multiple comparisons test) ([3]; barr1/2 KO cells, Time 0 min): 0
Mean Diff. DMSO - Comp 21 (Bonferroni's multiple comparisons test) ([3]; barr1/2 KO cells, Time 5 min): 8.446
Mean Diff. DMSO - Comp 21 (Bonferroni's multiple comparisons test) ([3]; barr1/2 KO cells, Time 20 min): 10.85
ERK1/2 activation induced by overexpression of BRAF-V600E ([4]; 50 μM): nor did it block ERK1/2 activation
ERK1/2 phosphorylation relative to mock (S_Fig.4d) ([4]; Flag-BRAF-V600E, listed as Comp 21): 3.464 and 4.631 and 3.5221 and 2.836
ERK1/2 phosphorylation relative to mock (S_Fig.4d) ([4]; Flag-BRAF-WT, listed as Comp 21): 1 and 1.273 and 1.416
ERK1/2 phosphorylation relative to mock (S_Fig.4d) ([4]; mock): 1
